{
  "source": "patent US9024022B2",
  "about": "“Substrates of O6-alkylguanine-DNA alkyltransferase and mutants thereof” (Cis Bio International, priority 2008, dated 2015)",
  "key": {"[1]": {"biological_target": "T1, SNAP-tag enzyme (GST-SNAP-tag-FKBP fusion protein) (Homo sapiens, UniProt P16455, A127T/C150S/C62A/G131K/G132T/K125A/M134L/N157G/R128A/R135S/S159E)", "T1 construct": "GST (N)", "T1 sequence (P16455 1-182 C62A/K125A/A127T/R128A/G131K/G132T/M134L/R135S/C150S/N157G/S159E limits assumed)": "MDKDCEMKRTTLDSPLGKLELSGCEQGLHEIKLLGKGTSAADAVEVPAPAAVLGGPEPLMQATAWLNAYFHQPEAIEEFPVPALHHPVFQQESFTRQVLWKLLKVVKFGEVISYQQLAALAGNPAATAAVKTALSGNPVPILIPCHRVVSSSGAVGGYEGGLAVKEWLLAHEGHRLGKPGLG", "assay": "Enzymatic reactivity test in an in vitro model (TR-FRET labeling of GST-SNAPtag-FKBP recombinant protein)", "format": "biochemical", "details": "for percentage of labeling of the SNAP-tag enzyme compared with the reference substrate: after 30 min of incubation, regardless of the concentration of substrate; for reactivity of the substrate with the SNAP-tag enzyme: in vitro protein labeling, compared with reference substrate", "text": "The test of reactivity of the substrates according to the invention with the SNAP-tag enzyme is based on an in vitro test of labeling a recombinant protein.\nIn this case, use is made of the FRB and FKBP proteins that interact in the presence of rapamycin.\nThe FKBP protein is labeled by a first fluorophore via SNAP-tag technology: for this, a GST-SNAPtag-FKBP fusion protein is produced from the pSET7-26b plasmid according to the protocol of the commercial kit (SNAP express pSET7-26b kit, Covalys Biosciences AG, Witterswil/Switzerland). This fusion protein is then brought into contact with the first fluorophore conjugated to a reference BG derivative or to a BG derivative according to the invention.\nThe FRB protein is itself coupled via conventional conjugation techniques with a donor fluorescent compound (europium TBP cryptate (KTBP), Cisbio Bioassay) or acceptor fluorescent compound (DY647, Dyomics) depending on the case, following the protocols provided with these products.\nThe table below explains the nature of the pairs of fluorophores in each of the following examples 1 to 4:\nIn each example, 2 nmol of FRB recombinant protein labeled with a europium cryptate or DY647 (2nd fluorophore) are co-incubated at ambient temperature with 2 nmol of GST-SNAP-tag-FKBP recombinant protein and increasing concentrations of BG labeled by the first fluorophore (BG-fluorophore of the prior art or BG-L1-A-L2-fluorophore according to the invention).\nThe fluorescence readings are taken at 620 nm and at 665 nm on a RubyStar machine (BMG laboratory) after an excitation at 337 nm. The readings are carried out before and after induction of the FRB/FKBP protein interaction by 100 nM of rapamycin. This interaction is expressed by the emission of a TR-FRET signal. Since the SNAP-tag enzyme can only attach to a single fluorescent group, the increase in the TR-FRET signal is directly proportional to the percentage of labeled proteins in the reaction medium. This in vitro model makes it possible to establish enzymatic labeling kinetics as a function of the excess of substrate involved in the reaction.\nThe results are indicated either as d665 or as % labeling according to the following formulae: d 665=(signal at 665 nm with the GST-ST-FKBP protein)−(signal at 665 nm without the GST-ST-FKBP protein).\nThe percentage of labeling is obtained by comparison with the signal corresponding to the maximum labeling that is obtained after 18 hours of incubation. % labeling=(d665 at t measured/d665 18 h of incubation)×100. Procedure of the Enzymatic Reactivity Test in a Cell Model"}, "[2]": {"biological_target": "T2, SNAP-tag-ST26 enzyme (SNAP-tag-mGluR2 fusion protein) (Homo sapiens, UniProt P16455, A127T/C150S/C62A/G131K/G132T/K125A/M134L/N157G/R128A/R135S/S159E)", "T2 construct": "expressed in transfected cells; host or cells: COS 7 cells, transient electroporation", "T2 sequence (P16455 1-182 C62A/K125A/A127T/R128A/G131K/G132T/M134L/R135S/C150S/N157G/S159E limits assumed)": "T1 sequence (P16455 1-182 C62A/K125A/A127T/R128A/G131K/G132T/M134L/R135S/C150S/N157G/S159E limits assumed)", "assay": "Enzymatic reactivity test in a cell model, SNAP-tag-mGluR2 expressed by COS 7 cells", "format": "cell-based", "details": "living COS 7 cells, labeling 1 h at 37° C., read-out: half saturation concentration of the enzyme", "procedure": "This procedure makes it possible to test the reactivity of substrates according to the invention with an AGT expressed by COS 7 cells in the form of a fusion protein with the type 2 glutamate transmembrane receptor (mGluR2).\nVarious mutants of AGT were analyzed in this study: SNAP-tag-ST26 or CLIP-tag from Covalys or the N-AGT mutant described by Gronemeyer et al. (Protein Engineering, Design & Selection, Vol. 19, No. 7, pp. 309-316, 2006).\n• SNAP-tag-mGluR2 plasmid, prepared from the pSET-26b plasmid according to the protocol of the commercial kit (SNAP express pSTE7-26b kit, Covalys Biosciences) • Invitrogen pcdna3.1 plasmid. This plasmid is used as a negative control; the cells transfected with this plasmid are denoted “mock” and make it possible to determine the level of non-specific labeling. Protocol:\nThe transient transfection of the cells is carried out by electroporation using a Biorad electroporator: 10 million cells are transfected by 1 μg SNAP-tag-mGluR2+3 μg pcdna3.1 in a final volume of 300 μl. The electroporation parameters are: 280 V & 1000 μF.\nThe cells are then seeded at 150 000 cells per well in Greiner plates (opaque black bottom) previously incubated with polyornithine for 30 minutes at 37° C.\nThe cells are cultured in the DMEM+Phenol Red+10% FCS+penicillin/streptomycin+non-essential amino acids medium at 37° C. and 5% CO2. After 24 h of expression, a first washing operation is carried out with 100 μl of this same medium.\nThe labeling of the AGT-mGluR2 fusion protein takes place in 100 μl of complete medium with increasing concentrations of BG-fluorophore or BG-L1-A-L2-fluorophore according to the invention for 1 h at 37° C. Before the reading, 4 washing operations are carried out with 100 μl of Tris-Krebs.\nFor the substrates bearing fluorophores ATTO647 (example 2), DY647 (examples 1 and 5) and fluorescein-5-EX (example 3), the reading is carried out in 100 μl of Tris-Krebs in direct fluorescence at 682 nm on a Rubystar machine, and at 520 nm for those bearing fluorescein-5-EX (example 3).\nFor the substrates bearing the terbium KR complex (examples 4 and 6), the reading is taken in 100 μl of Tris-Krebs in time-resolved fluorescence at 620 nm on a Rubystar machine."}, "[3]": {"biological_target": "T3, CLIP-tag enzyme (CLIPtag-mGluR2 fusion protein) (Homo sapiens, UniProt P16455, K32I/L33F/M60I/C62A/Y114E/Q115S/Q116H/A121V/K125A/A127T/R128A/G131N/G132T/M134L/R135D/C150Q/S151G/S152D/G153S/A154D/N157P/S159L)", "T3 construct": "The co-expressed SNAPtag-mGluR2 is a separate chain that carries the FRET partner dye", "T3 sequence (P16455 1-207 K32I/L33F/M60I/C62A/Y114E/Q115S/Q116H/A121V/K125A/A127T/R128A/G131N/G132T/M134L/R135D/C150Q/S151G/S152D/G153S/A154D/N157P/S159L)": "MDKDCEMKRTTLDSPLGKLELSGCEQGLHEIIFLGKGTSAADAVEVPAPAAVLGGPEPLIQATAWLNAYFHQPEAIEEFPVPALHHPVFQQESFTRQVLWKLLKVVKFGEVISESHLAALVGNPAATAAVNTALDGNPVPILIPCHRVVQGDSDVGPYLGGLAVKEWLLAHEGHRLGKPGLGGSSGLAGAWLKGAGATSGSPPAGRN", "assay": "Cell model with CLIPtag-mGluR2 and SNAPtag-mGluR2 cotransfection, TR-FRET at 665 nm", "format": "cell-based", "details": "cells incubated with 300 nM of BG-methylbenzamide-DY647; TR-FRET 665 nm; read-out: half saturation concentration of CLIPtag", "procedure": "The cell model used in this example is different from that used in the preceding examples:\nThe cells are either cotransfected with a plasmid coding for the fusion protein CLIPtag-mGluR2 and another plasmid coding for the fusion protein SNAPtag-mGluR2, or transfected with a single plasmid coding for the fusion protein SNAPtag-mGluR2.\nEach cell population is incubated in the presence of 300 nM of BG-methylbenzamide-DY647 and increasing concentrations of reference substrates (BC-Tb(KR)) or of a substrate according to the invention (BC-methylbenzamide-Tb(KR)). The fluorescence is measured at 665 nm in TR-FRET mode on a Rubystar machine and the signal measured is representative of a transfer of energy following the dimerization of two monomers of mGluR2 labeled respectively by DY647 and Tb(KR).\nThis example is carried out in the same way as example 7 but the cells are incubated in the presence of 300 nM of BG-methylbenzamide-Tb(KR) and increasing concentrations of reference substrate (BC-DY647) or of substrate according to the invention (BC-methylbenzamide-DY647), the formulae of which are below: […]"}},
  "data": [
    {"molecule": "CCN1c2cc3c(cc2C(C)=CC1(C)C)C(c1ccc(C(=O)N(C)CCCC(=O)NCc2ccc(C(=O)NCc4ccc(COc5nc(N)nc6[nH]cnc56)cc4)cc2)cc1)=c1cc2c(cc1O3)=[N+](CC)C(C)(C)C=C2C", "note": "[BG-methylbenzamide-ATTO647N, ATTO647N-methylbenzamide-BG]", "values": [
      {"measurement": "percentage of labeling of the SNAP-tag enzyme compared with the reference substrate", "setting": "[1]; in vitro", "value": "much better"}
    ]},
    {"molecule": "Tb(KR)-methylbenzamide-BG [BG-methylbenzamide-Tb(KR)]", "values": [
      {"measurement": "EC50", "setting": "[2]", "value": 15.4, "unit": "nM"},
      {"measurement": "reactivity of the substrate with the SNAP-tag enzyme", "setting": "[1]", "value": "much better reactivity"}
    ]},
    {"molecule": "Tb(KR)-aminomethylnicotinamide-benzylguanine [BG-aminomethylnicotinamide-Tb(KR)]", "values": [
      {"measurement": "reactivity of the substrate with the SNAP-tag enzyme", "setting": "[1]", "value": "Results similar to those obtained with the compounds of the preceding examples"}
    ]},
    {"molecule": "Atto465-BG [BG-Atto465, reference compound]", "values": [
      {"measurement": "EC50", "setting": "[2]", "value": 1980, "unit": "nM"}
    ]},
    {"molecule": "benzylguanine-Tb(KR) [BG-Tb(KR), reference compound]", "values": [
      {"measurement": "EC50", "setting": "[2]", "value": 60, "unit": "nM"}
    ]},
    {"molecule": "DY647-cis-cyclohexane-benzylguanine [BG-cis-cyclohexane-DY647]", "values": [
      {"measurement": "percentage of enzyme labeled compared with the reference substrate", "setting": "[1]; in vitro, after 1 h of incubation, regardless of the substrate concentration", "value": "much better"}
    ]},
    {"molecule": "DY647-aminomethylnicotinamide-benzylguanine [BG-aminomethylnicotinamide-DY647]", "values": [
      {"measurement": "percentage of labeling of the SNAP-tag enzyme compared with the reference substrate", "setting": "[1]; in vitro", "value": "much better"}
    ]},
    {"molecule": "benzylcytosine-Tb(KR) [BC-Tb(KR), reference compound]", "values": [
      {"measurement": "EC50", "setting": "[3]", "value": 820, "unit": "nM"}
    ]}
  ]
}
